Measured values published in patent US9139574B2, “Tumor targeted drug combretastatin A4 derivative” (Nanjing Sanhome Pharmaceutical Co., Ltd., priority 2011, dated 2015).
pIC50: −log10 of the molar value. Read-outs that look alike come from different tables or passages of the source.

Columns and labels:
HCT-116 = assay: MTT assay of anti-tumor activity, HCT-116; format: cell-based; conditions: Homo sapiens, HCT-116, 72 h, HCT-116 cells
Description: (§1) The cells were digested and counted. The cell suspension was prepared in a concentration of 5×10^4 cells/ml. 100 μL of the cell suspension per well was added into 96-well plates (5×10^3 cells per well). The 96-well plates were placed in a 5% CO2 incubator at 37° C. for 24 hours. The drugs were diluted with the complete medium to the desired concentrations. 100 μL of the corresponding drug-containing medium was added into each well. Negative control group, vehicle control group and positive control group were set. The 96-well plates were placed in 5% CO2 incubator at 37° C. for 72 hours. The 96-well plates were subjected to a MTT assay, and measured OD value at λ=490 nm. The measurement procedure comprises adding 20 μL MTT (5 mg/ml) for each well, incubating for 4 hours in an incubator, discarding the medium, dissolving by adding 150 μL DMSO into each well, mixing uniformly by rocking gently for 10 minutes on a shaker, reading OD value of each well in a microplate reader at λ=490 nm. The inhibition rate was calculated, the results were recorded, and the anti-tumor activity was assessed.

tubulin = assay: Inhibitory activity on tubulin polymerization (kit BK011P, Cytoskeleton); format: biochemical; conditions: 37° C., 60 minutes, fluorescence, Vmax
Description: The compounds were formulated into six different concentrations (0.03, 0.3, 0.9, 3, 9, 30 μM). The tubulin polymerization assay kit (Cat. # BK011P, Cytoskeleton) was used for testing. The samples were incubated at 37° C. for 60 minutes, and then fluorescence was collected using Gemini EM Fluorescence Microplate Reader collected at 410-460 nm. Vmax was calculated using SOFTMAX® PRO microplate data acquisition & analysis software. The tubulin inhibition (IC50) of the compound was calculated using GRAPHPAD PRISM® v5.01 graphing and statistics software.

[1] = Pharmacokinetics of Compound C128 liposome in rats; format: in vivo; conditions: C128 liposomes, 10 mg/kg tail vein injection, plasma, non-compartmental; for Vd: male, SD, 10 mg/kg
Description: C128 liposomes: (The liposome was prepared according to the conventional method in the pharmaceutical field, particle size 62.6 nm, polydispersity 0.532).
SD male rats, with average weight of 200 g.
Chromatographic conditions: LC-20A high performance liquid chromatography, SPD-20A variable wavelength UV detector (Shimadzu Corporation, Japan); C18 pre-column; mobile phase: methanol/water (65/35, v/v); flow rate 1 mL/min; detection wavelength 283 nm; column temperature 40° C.
The blood was collected from the orbital sinus of rats and centrifuged for 10 minutes at 3000 r/min, and the plasma was separated. 200 μL of the plasma was accurately sampled, and placed in 1.5 mL EP tube. 600 μL acetonitrile was added. The tube was vortexed for 3 minutes, and centrifuged for 10 minutes at 16000 r/min. 20 μL supernatant was taken for injection of HPLC determination. Chromatograms and peak area were recorded.
Blank plasma (280 μL) was accurately pipetted, and 20 μL of standard solutions of different concentrations of the drug was added to obtain the biological samples of different concentrations of the drug. The samples were treated and measured according to the aforementioned “Processing of the biological samples”. The chromatogram and the peak area were recorded. Linear regression was made by peak area A v.s concentration C (μg/mL) to obtain the standard working curve of Compound C128 in the biological samples.
Three male rats were used, and administered via tail vein injection at a dose of 10 mg/kg. The blood was taken via the orbital sinus after administration of 5 min, 15 min, 30 min, 1 h, 2 h, 4 h, 6 h, 8 h, 10 h, respectively. The samples were treated and measured according to the aforementioned “Processing of the biological samples”. The chromatogram and the peak area were recorded. The measured amount, namely, the drug concentration in plasma, was calculated by putting the peak area of the drug into the standard working curve equation.
The time curve of the drug in plasma was drawn—the area under the plasma drug concentration-time curve (AUC) was calculated by the Log trapezoidal method.

K562 = assay: MTT assay of anti-tumor activity, K562; format: cell-based; conditions: Homo sapiens, K562, 72 h, K562 cells
Description: as §1

NCI-H460 = assay: MTT assay of anti-tumor activity, NCI-H460; format: cell-based; conditions: Homo sapiens, NCI-H460, 72 h, NCI-H460 cells
Description: as §1

MCF-7 = assay: MTT assay of anti-tumor activity, MCF-7; format: cell-based; conditions: Homo sapiens, MCF7, 72 h, MCF-7 cells
Description: as §1

Question: What does the source list for COc1cc(OC)cc(-c2nc[nH]c2-c2ccc(OC)c(F)c2)c1 [Compound C128, 4-(3,5-dimethoxyphenyl)-5-(3-fluoro-4-methoxyphenyl)imidazole]?
Answer: pIC50 (HCT-116): 6.96; pIC50 (tubulin): 6.23; AUMC0-inf—obs ([1]; SD male rats): 7.569 μg/ml*h^2; Lambda—z ([1]; SD male rats): 0.833 h⁻¹; Vd ([1]; rat, iv, read-out: Vss—obs): 1.29 L/kg; Vd ([1]; rat, iv, read-out: Vz—obs): 1.57 L/kg; AUC(0-t) ([1]; rat, iv, SD male rats): 7280 ng·h/mL; C0 ([1]; rat, iv, SD male rats): 20400 ng/mL; Cmax ([1]; rat, iv, SD male rats): 14200 ng/mL; Tmax ([1]; rat, iv, SD male rats): 4.98 min; half-life ([1]; rat, iv, SD male rats): 50 min; AUC(0-inf) ([1]; rat, iv, SD male rats, read-out: AUC0-inf—obs): 7770 ng·h/mL; clearance ([1]; rat, iv, SD male rats, read-out: Cl—obs (converted)): 21.7 mL/min/kg; MRT inf ([1]; rat, iv, SD male rats, read-out: MRT0-inf—obs): 58.9 min; melting point: 127.1 to 128.9 °C; pIC50 (K562): 8.72; pIC50 (NCI-H460): 7.04; pIC50 (MCF-7): 9.00
